Laboratory results taken from PubChem BioAssay AID1963428 (Molecular Pharmacology Branch, DTP, NCI, 2024).
pIC50: −log10 of the molar value.

System: 171881-019-R-J1-PDC complex spheroid growth, % test/control
Test: Anticancer human tumor 171881-019-R-J1-PDC patient-derived invasive breast carcinoma cell line growth inhibition [Asc]
Settings: for pIC50: curve of first compound; for viability, T/C: stronger effect = lower value
Summary of the method: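 Stromal components (HUVEC and hMSC) are co-assembled with the cancer cells into multicellular spheroids. Drugs are then added singly or paired, at concentrations falling by half-log increments from a clinically achievable maximum, capped at 10 microM without known Cmax.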

[1] = second compound 0.1 µM, first compound 0.00316 µM
[2] = second compound 0.1 µM, first compound 0.01 µM
[3] = second compound 0.1 µM, first compound 0.0316 µM
[4] = second compound 0.1 µM, first compound 0.1 µM
[5] = second compound 0.1 µM, first compound 0.316 µM
[6] = second compound 0.1 µM, first compound 1 µM
[7] = second compound 0.316 µM, first compound 0.00316 µM
[8] = second compound 0.316 µM, first compound 0.01 µM
[9] = second compound 0.316 µM, first compound 0.0316 µM
[10] = second compound 0.316 µM, first compound 0.1 µM
[11] = second compound 0.316 µM, first compound 0.316 µM
[12] = second compound 0.316 µM, first compound 1 µM
[13] = second compound 1 µM, first compound 0.00316 µM
[14] = second compound 1 µM, first compound 0.01 µM
[15] = second compound 1 µM, first compound 0.0316 µM
[16] = second compound 1 µM, first compound 0.1 µM
[17] = second compound 1 µM, first compound 0.316 µM
[18] = second compound 1 µM, first compound 1 µM
[19] = second compound 3.16 µM, first compound 0.00316 µM
[20] = second compound 3.16 µM, first compound 0.01 µM
[21] = second compound 3.16 µM, first compound 0.0316 µM
[22] = second compound 3.16 µM, first compound 0.1 µM
[23] = second compound 3.16 µM, first compound 0.316 µM
[24] = second compound 3.16 µM, first compound 1 µM
[25] = second compound 10 µM, first compound 0.00316 µM
[26] = second compound 10 µM, first compound 0.01 µM
[27] = second compound 10 µM, first compound 0.0316 µM
[28] = second compound 10 µM, first compound 0.1 µM
[29] = second compound 10 µM, first compound 0.316 µM
[30] = second compound 10 µM, first compound 1 µM
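For viability, T/C in this document: spheroids exposed to compounds for 7 days.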

Q: What does the source list for `O=C(c1ccc(F)c(F)c1Nc1ccc(I)cc1F)N1CC(O)([C@@H]2CCCCN2)C1` + Cc1c(S(C)(=O)=O)c(-c2cc(F)cc(N3CCN(c4ccc(NS(=O)(=O)c5ccc(NC(CCN6CCC(C(=O)OCCCP(=O)(O)O)CC6)CSc6ccccc6)c(S(=O)(=O)C(F)(F)F)c5)cc4)CC3)c2)c(-c2ccc(Cl)cc2)n1C(C)C?
A: pIC50 (second compound 0.1 µM): 6.68; pIC50 (second compound 0.316 µM): 6.79; pIC50 (second compound 1 µM): 6.90; pIC50 (second compound 3.16 µM): 7.06; pIC50 (second compound 10 µM): 6.97; viability, T/C [1]: 98.9%; viability, T/C [2]: 110%; viability, T/C [3]: 222%; viability, T/C [4]: 97.6%; viability, T/C [5]: 25.8%; viability, T/C [6]: 18.8%; viability, T/C [7]: 109%; viability, T/C [8]: 194%; viability, T/C [9]: 186%; viability, T/C [10]: 75.9%; viability, T/C [11]: 18.7%; viability, T/C [12]: 12.3%; viability, T/C [13]: 136%; viability, T/C [14]: 193%; viability, T/C [15]: 158%; viability, T/C [16]: 59.2%; viability, T/C [17]: 13.7%; viability, T/C [18]: 6.11%; viability, T/C [19]: 156%; viability, T/C [20]: 182%; viability, T/C [21]: 115%; viability, T/C [22]: 44.8%; viability, T/C [23]: 8.8%; viability, T/C [24]: 3.61%; viability, T/C [25]: 175%; viability, T/C [26]: 174%; viability, T/C [27]: 118%; viability, T/C [28]: 54.9%; viability, T/C [29]: 12%; viability, T/C [30]: 3.48%

Q: How did the pIC50 (second compound 0.1 µM) turn out when `CNC(C)C(=O)NC1CN(S(=O)(=O)c2cccc(S(=O)(=O)N3CCC4CCC(C(=O)NC(c5ccccc5)c5ccccc5)N4C(=O)C(NC(=O)C(C)NC)C3)c2)CCC2CCC(C(=O)NC(c3ccccc3)c3ccccc3)N2C1=O` (stereo not given) + Cc1c(S(C)(=O)=O)c(-c2cc(F)cc(N3CCN(c4ccc(NS(=O)(=O)c5ccc(NC(CCN6CCC(C(=O)OCCCP(=O)(O)O)CC6)CSc6ccccc6)c(S(=O)(=O)C(F)(F)F)c5)cc4)CC3)c2)c(-c2ccc(Cl)cc2)n1C(C)C was run?
A: The pIC50 was less than 6.00.

Q: And the pIC50 (second compound 0.316 µM)?
A: The pIC50 was less than 6.00.

Q: What about the pIC50 (second compound 1 µM) of the same compound?
A: Its pIC50 is less than 6.00.

Q: What about the pIC50 (second compound 3.16 µM) of the same compound?
A: The pIC50 was less than 6.00.

Q: What about the pIC50 (second compound 10 µM) of the same compound?
A: Its pIC50 is less than 6.00.

Q: And the viability, T/C [1]?
A: The viability, T/C was 100%.

Q: What about the viability, T/C [2] of the same compound?
A: Its viability, T/C is 90.4%.

Q: What about the viability, T/C [3] of the same compound?
A: The viability, T/C was 96%.

Q: What about the viability, T/C [4] of the same compound?
A: Its viability, T/C is 87.8%.

Q: And the viability, T/C [5]?
A: The viability, T/C was 82.5%.

Q: And the viability, T/C [6]?
A: Its viability, T/C is 73.2%.

Q: What about the viability, T/C [7] of the same compound?
A: Its viability, T/C is 110%.

Q: And the viability, T/C [8]?
A: Its viability, T/C is 109%.

Q: And the viability, T/C [9]?
A: The viability, T/C was 94.9%.

Q: What about the viability, T/C [10] of the same compound?
A: Its viability, T/C is 112%.

Q: And the viability, T/C [11]?
A: Its viability, T/C is 90.8%.

Q: What about the viability, T/C [12] of the same compound?
A: Its viability, T/C is 97.2%.

Q: What about the viability, T/C [13] of the same compound?
A: Its viability, T/C is 90.1%.

Q: And the viability, T/C [14]?
A: Its viability, T/C is 133%.

Q: What about the viability, T/C [15] of the same compound?
A: Its viability, T/C is 129%.

Q: What about the viability, T/C [16] of the same compound?
A: Its viability, T/C is 107%.

Q: What about the viability, T/C [17] of the same compound?
A: Its viability, T/C is 104%.

Q: And the viability, T/C [18]?
A: Its viability, T/C is 119%.

Q: And the viability, T/C [19]?
A: Its viability, T/C is 138%.

Q: And the viability, T/C [20]?
A: The viability, T/C was 141%.

Q: What about the viability, T/C [21] of the same compound?
A: Its viability, T/C is 144%.

Q: What about the viability, T/C [22] of the same compound?
A: Its viability, T/C is 130%.

Q: What about the viability, T/C [23] of the same compound?
A: The viability, T/C was 126%.

Q: What about the viability, T/C [24] of the same compound?
A: Its viability, T/C is 156%.

Q: What about the viability, T/C [25] of the same compound?
A: Its viability, T/C is 204%.

Q: And the viability, T/C [26]?
A: Its viability, T/C is 171%.

Q: What about the viability, T/C [27] of the same compound?
A: The viability, T/C was 172%.

Q: What about the viability, T/C [28] of the same compound?
A: Its viability, T/C is 183%.

Q: And the viability, T/C [29]?
A: Its viability, T/C is 161%.

Q: What about the viability, T/C [30] of the same compound?
A: Its viability, T/C is 173%.

Q: `NC1CCC(NC2CC2c2ccccc2)CC1` (stereo not given) + CCN1C(C(=O)NC23CCC(C(=O)O)(CC2)CC3)C(c2cccc(Cl)c2F)C2(C(=O)Nc3cc(Cl)ccc32)C12CCCCC2 was tested. Which pIC50 (second compound 0.03 µM) did it give?
A: Its pIC50 is less than 7.00.

Q: What about the pIC50 (second compound 0.0949 µM) of the same compound?
A: The pIC50 was less than 7.00.

Q: What about the pIC50 (second compound 0.3 µM) of the same compound?
A: Its pIC50 is less than 7.00.

Q: What about the pIC50 (second compound 0.949 µM) of the same compound?
A: The pIC50 was less than 7.00.

Q: And the pIC50 (second compound 3 µM)?
A: The pIC50 was less than 7.00.

Q: What about the viability, T/C (second compound 0.03 µM, first compound 0.000316 µM) of the same compound?
A: Its viability, T/C is 123%.

Q: What about the viability, T/C (second compound 0.03 µM, first compound 0.001 µM) of the same compound?
A: The viability, T/C was 120%.

Q: And the viability, T/C (second compound 0.03 µM, first compound 0.00316 µM)?
A: Its viability, T/C is 111%.

Q: What about the viability, T/C (second compound 0.03 µM, first compound 0.01 µM) of the same compound?
A: The viability, T/C was 106%.

Q: What about the viability, T/C (second compound 0.03 µM, first compound 0.0316 µM) of the same compound?
A: Its viability, T/C is 110%.

Q: And the viability, T/C (second compound 0.03 µM, first compound 0.1 µM)?
A: Its viability, T/C is 106%.

Q: And the viability, T/C (second compound 0.0949 µM, first compound 0.000316 µM)?
A: The viability, T/C was 112%.

Q: And the viability, T/C (second compound 0.0949 µM, first compound 0.001 µM)?
A: Its viability, T/C is 94.4%.

Q: What about the viability, T/C (second compound 0.0949 µM, first compound 0.00316 µM) of the same compound?
A: The viability, T/C was 109%.

Q: What about the viability, T/C (second compound 0.0949 µM, first compound 0.01 µM) of the same compound?
A: Its viability, T/C is 118%.

Q: What about the viability, T/C (second compound 0.0949 µM, first compound 0.0316 µM) of the same compound?
A: Its viability, T/C is 113%.

Q: And the viability, T/C (second compound 0.0949 µM, first compound 0.1 µM)?
A: The viability, T/C was 103%.

Q: And the viability, T/C (second compound 0.3 µM, first compound 0.000316 µM)?
A: The viability, T/C was 112%.

Q: What about the viability, T/C (second compound 0.3 µM, first compound 0.001 µM) of the same compound?
A: The viability, T/C was 120%.

Q: And the viability, T/C (second compound 0.3 µM, first compound 0.00316 µM)?
A: The viability, T/C was 127%.

Q: And the viability, T/C (second compound 0.3 µM, first compound 0.01 µM)?
A: Its viability, T/C is 107%.

Q: And the viability, T/C (second compound 0.3 µM, first compound 0.0316 µM)?
A: The viability, T/C was 125%.

Q: What about the viability, T/C (second compound 0.3 µM, first compound 0.1 µM) of the same compound?
A: Its viability, T/C is 116%.

Q: What about the viability, T/C (second compound 0.949 µM, first compound 0.000316 µM) of the same compound?
A: Its viability, T/C is 107%.

Q: And the viability, T/C (second compound 0.949 µM, first compound 0.001 µM)?
A: The viability, T/C was 114%.

Q: And the viability, T/C (second compound 0.949 µM, first compound 0.00316 µM)?
A: Its viability, T/C is 110%.

Q: What about the viability, T/C (second compound 0.949 µM, first compound 0.01 µM) of the same compound?
A: The viability, T/C was 121%.

Q: And the viability, T/C (second compound 0.949 µM, first compound 0.0316 µM)?
A: The viability, T/C was 106%.

Q: What about the viability, T/C (second compound 0.949 µM, first compound 0.1 µM) of the same compound?
A: The viability, T/C was 115%.

Q: What about the viability, T/C (second compound 3 µM, first compound 0.000316 µM) of the same compound?
A: Its viability, T/C is 102%.

Q: And the viability, T/C (second compound 3 µM, first compound 0.001 µM)?
A: Its viability, T/C is 118%.

Q: What about the viability, T/C (second compound 3 µM, first compound 0.00316 µM) of the same compound?
A: Its viability, T/C is 110%.

Q: And the viability, T/C (second compound 3 µM, first compound 0.01 µM)?
A: The viability, T/C was 109%.

Q: And the viability, T/C (second compound 3 µM, first compound 0.0316 µM)?
A: Its viability, T/C is 110%.

Q: And the viability, T/C (second compound 3 µM, first compound 0.1 µM)?
A: Its viability, T/C is 107%.
